The results in this text go back to US7132243B2, “Clonal expansion of T cells of unknown specificity and identification of ligand recognized by the clonally expanded T cells” (Juridical Foundation The Chemo-Sero-Therapeutic Research …, priority 2001, dated 2006).

This test concerns 19.6.47 T cells. The experiment in a line: Proliferation reaction of isolated T cell clone with cedar pollen antigen and synthetic peptide. The format is cell-based, human. To be noted: radiated (45 Gy) PBMC; FIG. 5. Here is the method:
Purified Cry j I protein (closed bar: 50 μg/ml, hatched bar: […], and open bar: 0.5 μg/ml), Cry j I p301–321 (closed bar: 250 μM, hatched bar: 25 μM, and open bar: 2.5 μM), and irrelevant (irrelevant peptide: […](SEQ ID NO: 3)).
The donor of 19.6.47 T cells suffered from hay fever of Japanese cedar pollen and said T cells were established during heavy pollination season. In this respect, a major allergen of Japanese cedar pollen (Cryptomeria japonica I; Cry j I) among the three non-autologous peptides shown in Table 3 was considered to be a possible peptide ligand recognized by said T cell clone. Thus, a synthetic peptide Cry j I p301–321 ([…](SEQ ID NO: 4)) and purified Cry j I protein were examined for their reactivity with the 19.6.47 T cells. A major allergen of Japanese cedar (Cryptomeria japonica) pollen was purified as described in Matsushita, S. et al., J. Immunol., 1987, 138: 109–115.
The 19.6.47 T cells were cultured with radiated (45 Gy) PBMC either in the presence of purified Cry j I protein ([…]), Cry j I p301–321 peptide ([…]) or irrelevant peptide.

Where no end group is shown, it is not given here.

For the molecule “DVFYNGAYFVSSGKYEGGNIY (SEQ ID NO: 4) [Cry j I p301–321]”, the “reactivity with the 19.6.47 T cells (proliferation)” value is on record as “reacted”.

B1: purified Cry j I protein: purified major allergen of Japanese cedar (Cryptomeria japonica) pollen (protein)
chain: DNPIDSCWRGDSNWAQNRMKLADCAVGFGSSTMGGKGGDLYTVTNSDDDPVNPAPGTLRYGATRDRPLWIIFSGNMNIKLKMPMYIAGYKTFDGRGAQVYIGNGGPCVFIKRVSNVIIHGLYLYGCSTSVLGNVLINESFGVEPVHPQDGDALTLRTATNIWIDHNSFSNSSDGLVDVTLTSTGVTISNNLFFNHHKVMLLGHDDAYSDDKSMKVTVAFNQFGPNCGQRMPRARYGLVHVANNNYDPWTIYAIGGSSNPTILSEGNSFTAPNESYKKQVTIRIGCKTSSSCSNWVWQSTQDVFYNGAYFVSSGKYEGGNIYTKKEAFNVENGNATPQLTKNAGVLTCSLSKRC
For the molecule B1, the “reactivity with the 19.6.47 T cells (proliferation)” value is “reacted”.
